Patent publication US9149038B2, “4-amino-6-(heterocyclic)picolinates and 6-amino-2-(heterocyclic)pyrimidine-4-carboxylates and their use as herbicides” (Dow AgroSciences LLC, priority 2013, dated 2015)
Where two headings read alike, the source gives them in different places.

Key:
[1] = test system: Key Grass and Sedge Weeds as well as Grass Crops; assay: Post-Emergent Test II: postemergent herbicidal activity, visual rating after 14 d (Table 8); assay type: in vivo; settings: post-emergence, 336 h; for pest or weed control at 35 g/ha: 35 g ai/ha; for pest or weed control at 70 g/ha: 70 g ai/ha; for pest or weed control at 140 g/ha: 140 g ai/ha
In short: (§1)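 Visual 0-100% injury score (0 no injury, 100 complete kill) at 14 d post-spray, relative to untreated plants. Seedlings at 1st-2nd true leaf stage; track sprayer at 187 L/ha, highest rate plus ½×, ¼×, ⅛×, 1/16× serial dilutions. Subirrigated after treatment.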

[2] = test system: Key Broadleaf Weed and Crop Species; assay: Post-Emergent Test II: postemergent herbicidal activity, visual rating after 14 d (Table 7); assay type: in vivo; settings: post-emergence, 336 h; for pest or weed control at 35 g/ha: 35 g ai/ha; for pest or weed control at 70 g/ha: 70 g ai/ha; for pest or weed control at 140 g/ha: 140 g ai/ha
In short: as §1

[3] = barnyardgrass (Echinochloa crus-galli), read-out: Visual Growth Reduction (%) 14 Days After Application ECHCG
[4] = giant foxtail (Setaria faberi), read-out: Visual Growth Reduction (%) 14 Days After Application SETFA
[5] = maize, corn (Zea mays), read-out: Visual Growth Reduction (%) 14 Days After Application ZEAMX
[6] = rice (Oryza sativa), read-out: Visual Growth Reduction (%) 14 Days After Application ORYSA
[7] = wheat, spring (Triticum aestivum), read-out: Visual Growth Reduction (%) 14 Days After Application TRZAS
[8] = yellow nutsedge (Cyperus esculentus), read-out: Visual Growth Reduction (%) 14 Days After Application CYPES
[9] = lambsquarters (Chenopodium album), read-out: Visual Growth Reduction (%) 14 Days After Application CHEAL
[10] = oilseed rape, canola (Brassica napus), read-out: Visual Growth Reduction (%) 14 Days After Application BRSNN
[11] = redroot pigweed (Amaranthus retroflexus), read-out: Visual Growth Reduction (%) 14 Days After Application AMARE
[12] = sunflower (Helianthus annuus), read-out: Visual Growth Reduction (%) 14 Days After Application HELAN
[13] = velvetleaf (Abutilon theophrasti), read-out: Visual Growth Reduction (%) 14 Days After Application ABUTH
[14] = wild poinsettia (Euphorbia heterophylla), read-out: Visual Growth Reduction (%) 14 Days After Application EPHHL

Structure (SMILES) | pest or weed control at 35 g/ha [1, 3] [%] | pest or weed control at 70 g/ha [1, 3] [%] | pest or weed control at 140 g/ha [1, 3] [%] | pest or weed control at 35 g/ha [1, 4] [%] | pest or weed control at 70 g/ha [1, 4] [%] | pest or weed control at 140 g/ha [1, 4] [%] | pest or weed control at 35 g/ha [1, 5] [%] | pest or weed control at 70 g/ha [1, 5] [%] | pest or weed control at 140 g/ha [1, 5] [%] | pest or weed control at 35 g/ha [1, 6] [%] | pest or weed control at 70 g/ha [1, 6] [%] | pest or weed control at 140 g/ha [1, 6] [%] | pest or weed control at 35 g/ha [1, 7] [%] | pest or weed control at 70 g/ha [1, 7] [%] | pest or weed control at 140 g/ha [1, 7] [%] | pest or weed control at 35 g/ha [1, 8] [%] | pest or weed control at 70 g/ha [1, 8] [%] | pest or weed control at 140 g/ha [1, 8] [%] | pest or weed control at 35 g/ha [2, 9] [%] | pest or weed control at 70 g/ha [2, 9] [%] | other results
COC(=O)c1nc(-c2cc3c(cc2F)OCO3)cc(N)c1Cl [Compound 45] | 75 to 84 | 75 to 84 | 85 to 94 | 60 to 74 | 60 to 74 | 85 to 94 | 45 to 59 | 60 to 74 | 75 to 84 | 45 to 59 | 60 to 74 | 60 to 74 | 30 to 44 | 45 to 59 | 60 to 74 | 30 to 44 | 30 to 44 | 60 to 74 | 85 to 94 | 95 to 100 | pest or weed control at 140 g/ha [2, 9]: 95 to 100%; pest or weed control at 35 g/ha [2, 10]: 75 to 84%; pest or weed control at 70 g/ha [2, 10]: 95 to 100%; pest or weed control at 140 g/ha [2, 10]: 95 to 100%; pest or weed control at 35 g/ha [2, 11]: 95 to 100%; pest or weed control at 70 g/ha [2, 11]: 95 to 100%; pest or weed control at 140 g/ha [2, 11]: 95 to 100%; pest or weed control at 35 g/ha [2, 12]: 60 to 74%; pest or weed control at 70 g/ha [2, 12]: 60 to 74%; pest or weed control at 140 g/ha [2, 12]: 75 to 84%; pest or weed control at 35 g/ha [2, 13]: 95 to 100%; pest or weed control at 70 g/ha [2, 13]: 95 to 100%; pest or weed control at 140 g/ha [2, 13]: 95 to 100%; pest or weed control at 35 g/ha [2, 14]: 75 to 84%; pest or weed control at 70 g/ha [2, 14]: 85 to 94%; pest or weed control at 140 g/ha [2, 14]: 95 to 100%
COC(=O)c1nc(-c2c(F)cc3c(c2F)OC(F)(F)O3)cc(N)c1Cl [Compound 46] | 45 to 59 | 60 to 74 | 85 to 94 | 0 to 29 | 0 to 29 | 0 to 29 | 0 to 29 | 45 to 59 | 75 to 84 | 0 to 29 | 0 to 29 | 0 to 29 | 0 to 29 | 30 to 44 | 45 to 59 | 95 to 100 | 95 to 100 | 95 to 100 | 95 to 100 | 95 to 100 | pest or weed control at 140 g/ha [2, 9]: 95 to 100%; pest or weed control at 35 g/ha [2, 10]: 95 to 100%; pest or weed control at 70 g/ha [2, 10]: 95 to 100%; pest or weed control at 140 g/ha [2, 10]: 95 to 100%; pest or weed control at 35 g/ha [2, 11]: 95 to 100%; pest or weed control at 70 g/ha [2, 11]: 95 to 100%; pest or weed control at 140 g/ha [2, 11]: 95 to 100%; pest or weed control at 35 g/ha [2, 12]: 0 to 29%; pest or weed control at 70 g/ha [2, 12]: 30 to 44%; pest or weed control at 140 g/ha [2, 12]: 60 to 74%; pest or weed control at 35 g/ha [2, 13]: 85 to 94%; pest or weed control at 70 g/ha [2, 13]: 95 to 100%; pest or weed control at 140 g/ha [2, 13]: 95 to 100%; pest or weed control at 35 g/ha [2, 14]: 30 to 44%; pest or weed control at 70 g/ha [2, 14]: 60 to 74%; pest or weed control at 140 g/ha [2, 14]: 85 to 94%
COC(=O)c1nc(-c2ccc3c(c2OC)OC(F)(F)O3)cc(N)c1Cl [Compound 47] | 0 to 29 | 0 to 29 | 0 to 29 | 0 to 29 | 0 to 29 | 0 to 29 | 0 to 29 | 0 to 29 | 0 to 29 | 0 to 29 | 0 to 29 | 0 to 29 | 0 to 29 | 0 to 29 | 0 to 29 | 0 to 29 | 0 to 29 | 0 to 29 | 30 to 44 | 30 to 44 | pest or weed control at 140 g/ha [2, 9]: 45 to 59%; pest or weed control at 35 g/ha [2, 10]: 60 to 74%; pest or weed control at 70 g/ha [2, 10]: 60 to 74%; pest or weed control at 140 g/ha [2, 10]: 60 to 74%; pest or weed control at 35 g/ha [2, 11]: 0 to 29%; pest or weed control at 70 g/ha [2, 11]: 75 to 84%; pest or weed control at 140 g/ha [2, 11]: 85 to 94%; pest or weed control at 35 g/ha [2, 12]: 30 to 44%; pest or weed control at 70 g/ha [2, 12]: 30 to 44%; pest or weed control at 140 g/ha [2, 12]: 45 to 59%; pest or weed control at 35 g/ha [2, 13]: 0 to 29%; pest or weed control at 70 g/ha [2, 13]: 30 to 44%; pest or weed control at 140 g/ha [2, 13]: 60 to 74%; pest or weed control at 35 g/ha [2, 14]: 0 to 29%; pest or weed control at 70 g/ha [2, 14]: 0 to 29%; pest or weed control at 140 g/ha [2, 14]: 0 to 29%
COC(=O)c1nc(-c2c(F)cc3c(c2F)OCO3)cc(N)c1Cl [Compound 48] | 75 to 84 | 75 to 84 | 85 to 94 | 0 to 29 | 60 to 74 | 75 to 84 | 30 to 44 | 60 to 74 | 75 to 84 | 30 to 44 | 45 to 59 | 60 to 74 | 0 to 29 | 30 to 44 | 60 to 74 | 0 to 29 | 0 to 29 | 30 to 44 | 95 to 100 | 95 to 100 | pest or weed control at 140 g/ha [2, 9]: 95 to 100%; pest or weed control at 35 g/ha [2, 10]: 95 to 100%; pest or weed control at 70 g/ha [2, 10]: 95 to 100%; pest or weed control at 140 g/ha [2, 10]: 95 to 100%; pest or weed control at 35 g/ha [2, 11]: 85 to 94%; pest or weed control at 70 g/ha [2, 11]: 95 to 100%; pest or weed control at 140 g/ha [2, 11]: 95 to 100%; pest or weed control at 35 g/ha [2, 12]: 0 to 29%; pest or weed control at 70 g/ha [2, 12]: 45 to 59%; pest or weed control at 140 g/ha [2, 12]: 60 to 74%; pest or weed control at 35 g/ha [2, 13]: 85 to 94%; pest or weed control at 70 g/ha [2, 13]: 95 to 100%; pest or weed control at 140 g/ha [2, 13]: 95 to 100%; pest or weed control at 35 g/ha [2, 14]: 95 to 100%; pest or weed control at 70 g/ha [2, 14]: 95 to 100%; pest or weed control at 140 g/ha [2, 14]: 95 to 100%
